Source: patent US20250177582A1, “HIGH-AFFINITY LIGANDS OF FIBROBLAST ACTIVATION PROTEIN FOR TARGETED DELIVERY APPLICATIONS” (PHILOCHEM AG, priority 2022, published 2025)
Entries after “also recorded” stand apart in the source; their conditions may differ. Like-named read-outs stand apart in the source and are kept apart here.

Columns and labels:
human FAP = human FAP (Homo sapiens (Human), UniProt Q12884); assay: Inhibition assay of FAP (fluorogenic substrate Z-Gly-Pro-AMC); type: biochemical; conditions: for FAP binding relative to the parent compound (in words): effect of arginine-based tail / of removing furan as group W; for FAP inhibition potency (in words): SAR comparison
Method: (§1) Inhibition assay of FAP. The compounds were precisely weighed (range between […]) on a micro-scale (HuberLab, Sartorius QUINTIX35-1S) and dissolved in DMSO to prepare stock solutions at 1 mM. Stock solutions were further diluted with FAP activation buffer (50 mM Tris, 100 mM NaCl, 1 mM EDTA, pH=7.4) to a final DMSO concentration of 10% v/v. 10 μL of each inhibitor were serially diluted in a 384 well plate (grenier-bio one, PS, F-bottom, Black, non-binding) with 10 μL of 10% DMSO FAP buffer (1:1 dilution). FAP (human and murine) was diluted to the desired concentration with FAP activation buffer and added to the serial dilution of inhibitor (10 μL for each well). Each protein-inhibitor solution was incubated for 30 minutes at room temperature. Each measurement was performed with an enzyme concentration (FAP) lower than the expected IC50. A 60 μM solution of substrate (Z-Gly-Pro-AMC) in FAP activation buffer (<1% DMSO) was added to the plate (10 μL for each well). The reaction was incubated from 1 minute to 48 hours (see FIG. 2) at room temperature (22° C.-25° C.). The emission was read at 465 nm (excitation wavelength 360 nm) for 40 μs by Tecan Spark (s.n. 1808004082). The following controls were added to each row: positive control (no inhibitor control, 10 μL of 10% DMSO FAP buffer+10 μL of FAP solution+10 μL of substrate solution), negative control (no protein control, 10 μL of 10% DMSO FAP buffer+10 μL of FAP activation buffer+10 μL of substrate solution).
(§2) Normalization of values: The “% of FAP activity” can be calculated with the following formula:
The concentration of substrate (Z-Gly-Pro-AMC) was kept constant=20 μM. Dashed lines corresponds to sets of data with unstable fitting. […] Error bars display SEM.
(§3) FIG. 3: Inhibition assay performed with compounds 1, 2, 3, 4, 5, 6, 8 against a) 66 pM human FAP and b) 66 pM murine FAP. The concentration of substrate (Z-Gly-Pro-AMC) was kept constant=20 μM. The assay was incubated for 48 hours at 22.6° C. Error bars display SEM.
(§4) FIG. 4: a) Inhibition assay performed with compounds 8, 9 and 10 against 66 pM human FAP. The assay was incubated for 17 hours at 25° C. b) Inhibition assay performed with compound 9 against 66 pM murine FAP. The assay was incubated for 17 hours at 25° C. In both assays the concentration of substrate (Z-Gly-Pro-AMC) was kept constant=20 μM. Error bars display SEM.
FIG. 19. A: Chemical structures and corresponding IC50(hFAP) values of compounds according to the present invention. B: Chemical structures and corresponding IC50 values of compounds where the propargyl moiety at position AA^2 was replaced by different groups (Me, iPr, Bn) using both R and S stereoisomers. The sites of modification have been highlighted with arrows. Each measurement was performed with a FAP concentration lower than the expected IC50. Depending on FAP concentration, the fluorescence was measured between 10 minutes and 48 h (at room temperature) after the addition of the fluorogenic substrate (Z-Gly-Pro-AMC). IC50 values and standard errors were calculated using “[Inhibitor] vs. response—Variable slope (four parameters)” fitting (Graphpad Prism). […] By introducing the quinoline-based moiety, a single-digit nanomolar inhibitor was obtained. […] The replacement of propargylglycine with S-phenylalanine improved potency of the lead compound of additional ˜2-folds (compound 14).

murine FAP = murine FAP (Mus musculus (Mouse), UniProt P97321); assay: as above; type: biochemical; conditions: substrate Z-Gly-Pro-AMC 20 μM; 66 pM murine FAP; room temperature
Method: as §1, §2, §3, §4

[1] = substrate Z-Gly-Pro-AMC 20 μM, FAP concentration lower than expected IC50 (66 pM in FIG. 3, 4), room temperature, read-out: IC50 vs human FAP

Chain of human FAP (Q12884 whole entry): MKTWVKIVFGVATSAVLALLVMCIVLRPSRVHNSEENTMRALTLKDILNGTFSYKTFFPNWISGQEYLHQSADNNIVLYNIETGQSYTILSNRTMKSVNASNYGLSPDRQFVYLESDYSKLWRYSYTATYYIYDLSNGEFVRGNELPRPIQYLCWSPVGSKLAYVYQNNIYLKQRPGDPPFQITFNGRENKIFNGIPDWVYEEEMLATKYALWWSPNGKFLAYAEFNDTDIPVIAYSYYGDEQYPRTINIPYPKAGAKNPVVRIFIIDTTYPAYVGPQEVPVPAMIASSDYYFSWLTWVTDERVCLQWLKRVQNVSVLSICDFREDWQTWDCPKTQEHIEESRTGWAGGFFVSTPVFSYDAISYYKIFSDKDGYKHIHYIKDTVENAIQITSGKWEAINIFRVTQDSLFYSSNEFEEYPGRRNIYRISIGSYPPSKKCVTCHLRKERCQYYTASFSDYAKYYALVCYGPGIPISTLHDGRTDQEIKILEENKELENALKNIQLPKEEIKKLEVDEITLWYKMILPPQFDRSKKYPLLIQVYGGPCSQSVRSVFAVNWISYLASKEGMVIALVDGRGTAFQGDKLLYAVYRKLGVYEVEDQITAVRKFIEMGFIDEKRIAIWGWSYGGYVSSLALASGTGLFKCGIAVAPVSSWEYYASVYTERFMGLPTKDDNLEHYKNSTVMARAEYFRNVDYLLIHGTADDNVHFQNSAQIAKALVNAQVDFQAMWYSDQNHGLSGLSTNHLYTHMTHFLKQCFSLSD
Chain of murine FAP (P97321 whole entry): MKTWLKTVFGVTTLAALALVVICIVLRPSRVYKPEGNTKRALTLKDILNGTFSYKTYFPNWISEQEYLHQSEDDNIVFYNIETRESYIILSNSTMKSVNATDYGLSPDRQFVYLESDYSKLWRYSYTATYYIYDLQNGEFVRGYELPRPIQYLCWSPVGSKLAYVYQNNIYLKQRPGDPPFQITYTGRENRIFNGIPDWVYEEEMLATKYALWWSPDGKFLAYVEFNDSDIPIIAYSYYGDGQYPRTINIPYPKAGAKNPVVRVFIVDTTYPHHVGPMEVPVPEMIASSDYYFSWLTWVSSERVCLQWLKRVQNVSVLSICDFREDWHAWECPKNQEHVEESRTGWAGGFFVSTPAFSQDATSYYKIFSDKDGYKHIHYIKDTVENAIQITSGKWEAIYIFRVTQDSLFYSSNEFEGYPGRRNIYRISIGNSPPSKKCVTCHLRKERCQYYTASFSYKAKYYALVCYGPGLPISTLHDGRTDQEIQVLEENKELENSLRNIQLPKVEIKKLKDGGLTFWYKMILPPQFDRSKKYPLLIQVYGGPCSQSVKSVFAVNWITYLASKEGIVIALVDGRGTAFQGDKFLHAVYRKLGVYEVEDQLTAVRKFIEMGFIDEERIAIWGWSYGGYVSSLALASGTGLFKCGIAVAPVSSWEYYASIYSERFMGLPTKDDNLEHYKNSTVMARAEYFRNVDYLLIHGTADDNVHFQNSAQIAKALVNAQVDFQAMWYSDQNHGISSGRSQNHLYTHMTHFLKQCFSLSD

IC50 (murine FAP) [nM]	Structure (SMILES)	IC50 (human FAP; [1]) [nM]	also measured
–	CC(C)[C@H](NC(=O)[C@H](CCCNC(=N)N)NC(=O)CCC(=O)Nc1cccc2c(C(=O)NCC(=O)N3CC(F)(F)C[C@H]3C#N)ccnc12)C(=O)N[C@@H](CCCCN)C(=O)O [Compound 16]	1.66	–
–	CN(C)C(=N)NCCC[C@H](NC(=O)CCC(=O)Nc1cccc2c(C(=O)NCC(=O)N3CC(F)(F)C[C@H]3C#N)ccnc12)C(=O)N[C@@H](Cc1ccccc1)C(=O)NCCN [Compound 27]	1.02	–
22700	C#CC[C@H](NC(=O)CCC(=O)N1CC(F)(F)C[C@H]1C#N)C(=O)N[C@@H](CCCCN)C(=O)O [Compound 6]	17200	FAP binding relative to the parent compound (in words) (human FAP): worsening
–	C#CC[C@H](NC(=O)CCC(=O)Nc1cccc2c(C(=O)NCC(=O)N3CC(F)(F)C[C@H]3C#N)ccnc12)C(=O)N[C@@H](CCCCN)C(=O)O [Compound 10]	4.38	–
–	CN(C)C(=N)NCCC[C@H](NC(=O)CCC(=O)Nc1cccc2c(C(=O)NCC(=O)N3CC(F)(F)C[C@H]3C#N)ccnc12)C(=O)N[C@@H](Cc1ccccc1)C(=O)N[C@@H](CCCCN)C(=O)O [Compound 11]	0.156	FAP inhibition potency (in words) (human FAP): picomolar range
–	CN(C)C(=N)NCCC[C@H](NC(=O)CCC(=O)Nc1cccc2c(C(=O)NCC(=O)N3CC(F)(F)C[C@H]3C#N)ccnc12)C(=O)N[C@@H](Cc1ccccc1)C(=O)NCCNC(=O)OC(C)(C)C [Compound 26]	0.0748	–
200000	N#C[C@@H]1CC(F)(F)CN1C(=O)CCC(=O)O [Compound 1]	249000	–
–	C[C@@H](NC(=O)[C@H](CCCNC(=N)N)NC(=O)CCC(=O)Nc1cccc2c(C(=O)NCC(=O)N3CC(F)(F)C[C@H]3C#N)ccnc12)C(=O)N[C@@H](CCCCN)C(=O)O [Compound 19]	0.991	–
–	C[C@H](NC(=O)[C@H](CCCNC(=N)N)NC(=O)CCC(=O)Nc1cccc2c(C(=O)NCC(=O)N3CC(F)(F)C[C@H]3C#N)ccnc12)C(=O)N[C@@H](CCCCN)C(=O)O [Compound 18]	1.54	–
154	CN(C)C(=N)NCCC[C@H](NC(=O)c1coc(CNC(=O)CCC(=O)N2CC(F)(F)C[C@H]2C#N)c1)C(=O)N[C@@H](CCCCN)C(=O)O [Compound 4]	178	FAP binding relative to the parent compound (in words) (human FAP): significant improvement
–	CC(C)[C@@H](NC(=O)[C@H](CCCNC(=N)N)NC(=O)CCC(=O)Nc1cccc2c(C(=O)NCC(=O)N3CC(F)(F)C[C@H]3C#N)ccnc12)C(=O)N[C@@H](CCCCN)C(=O)O [Compound 17]	0.697	–
16.1	N#C[C@@H]1CC(F)(F)CN1C(=O)CNC(=O)c1ccnc2c(NC(=O)CCC(=O)O)cccc12 [Compound 8, (S)-4-((4-((2-(2-cyano-4,4-difluoropyrrolidin-1-yl)-2-oxoethyl)carbamoyl)quinolin-8-yl)amino)-4-oxobutanoic acid, reference compound]	10.9	IC50 (human FAP; 22.6° C., [hFAP] 2.5 nM to 39 pM, substrate 20 μM, read-out: IC50 values from fitted curves, inhibition assay performed overtime): 6 to 21 nM
–	N#C[C@@H]1CC(F)(F)CN1C(=O)CNC(=O)c1ccnc2c(NC(=O)CCC(=O)N[C@@H](CCCNC(=N)N)C(=O)N[C@@H](Cc3ccccc3)C(=O)N[C@@H](CCCCN)C(=O)O)cccc12 [Compound 14]	0.353	improvement of potency over the lead compound on replacing propargylglycine with S-phenylalanine (human FAP; L-arginine building block (R=H)): ~2 folds
–	N#C[C@@H]1CC(F)(F)CN1C(=O)CN [reference compound]	24100	–
3900	C#CC[C@H](NC(=O)c1coc(CNC(=O)CCC(=O)N2CC(F)(F)C[C@H]2C#N)c1)C(=O)N[C@@H](CCCCN)C(=O)O [Compound 5]	–	–
–	N#C[C@@H]1CC(F)(F)CN1C(=O)CNC(=O)c1ccnc2c(NC(=O)CCC(=O)N[C@@H](CCCNC(=N)N)C(=O)N[C@H](Cc3ccccc3)C(=O)N[C@@H](CCCCN)C(=O)O)cccc12 [Compound 15]	604	–

Structure (SMILES)	IC50 (murine FAP) [nM]	IC50 (human FAP; [1]) [nM]	also measured
C#CC[C@H](NC(=O)[C@H](CCCNC(=N)N(C)C)NC(=O)CCC(=O)Nc1cccc2c(C(=O)NCC(=O)N3CC(F)(F)C[C@H]3C#N)ccnc12)C(=O)N[C@@H](CCCCN)C(=O)O [Compound 9]	0.115	0.439	FAP inhibition potency (in words) (human FAP): sub-nanomolar range; also recorded: increased strongly
